In patent US20190315823A1, “SMALL CATIONIC ANTI-BIOFILM AND IDR PEPTIDES” (priority 2013, published 2019):
Ends that are not written are not given here.

Tests used:
[1] = test system: LPS-stimulated human peripheral blood mononuclear cells (IL1-β); type: cell-based; conditions: Table 12, cells stimulated with 10 ng/ml LPS; for IL1β Production: LPS alone 1313 (HH2 derivatives), 1927 (1018 derivatives), 2455 (1002 and hybrid peptides) pg/ml
[2] = test system: methicillin resistant Staphylococcus aureus (MRSA) biofilm; conditions: approximate peptide concentration […] (around 3 μg/ml); compared to untreated samples
Summary of the method: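 Peptide was present from inoculation onward, with bacteria seeded at 1/100 from overnight cultures into BM2 biofilm medium or Luria Broth. Crystal violet staining of surface-attached cells (A595) quantified biofilm reduction at 22–46 h. K. pneumoniae was additionally screened in a real-time Bioflux flow device for some peptides.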

[3] = test system: human peripheral blood mononuclear cells (MCP-1); test: SPOT-synthesized derivative screen: production of chemokine MCP-1; type: cell-based; conditions: Table 12, No LPS, human PBMC, peptide at ~18-24 μM; for MCP1: background subtracted 139 (HH2 derivatives), 170 (1018 derivatives), 242 (1002 and hybrid peptides) pg/ml
Summary of the method: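 MCP-1 was quantified by capture ELISA in cleared culture supernatants of treated human peripheral blood mononuclear cells. Cells came from heparinized volunteer blood via Ficoll gradient and were seeded at 0.75 to 1×10^6 cells/ml (37 °C, 5% CO2).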

Substance	Fold change in IL1β relative to no peptide LPS stimulated cells [1]	IL1β Production [1]	% Biofilm inhibition [2]	Fold increase in MCP1 cf. untreated cells [3]	MCP1 [3]
HH2-R9: single substituted HH2 peptide (VQLRIRVARIRA-NH2)	1.60	2099 pg/mL	65%	3.4	406 pg/mL
1002-G3: single substituted 1002 peptide (VQGWLIVWRIRK-NH2) [Peptide 1002-G3]	0.05	127 pg/mL	56%	14.0	3157.8 pg/mL
HH2-W3: single substituted HH2 peptide (VQWRIRVAVIRA-NH2)	0.67	874 pg/mL	62%	21	3418 pg/mL
1002-G7: single substituted 1002 peptide (VQRWLIGWRIRK-NH2) [Peptide 1002-G7]	0.14	353 pg/mL	54%	0.9	-36.2 pg/mL
HH2-V2: single substituted HH2 peptide (VVLRIRVAVIRA-NH2)	0.97	1267 pg/mL	77%	24	3945 pg/mL
1018-K1: single substituted 1018 peptide (KRLIVAVRIWRR-NH2) [Peptide 1018-K1]	0.13	173 pg/mL	49%	1.2	40 pg/mL
1002-Q6: single substituted 1002 peptide (VQRWLQVWRIRK-NH2) [Peptide 1002-Q6]	0.35	859 pg/mL	22%	0.9	-36.2 pg/mL
1018-W12: single substituted 1018 peptide (VRLIVAVRIWRW-NH2) [Peptide 1018-W12]	0.34	441 pg/mL	65%	1.5	79 pg/mL
1002-K9: single substituted 1002 peptide (VQRWLIVWKIRK-NH2) [Peptide 1002-K9]	0.05	127 pg/mL	50%	1.6	143.9 pg/mL
1018-L11: single substituted 1018 peptide (VRLIVAVRIWLR-NH2) [Peptide 1018-L11]	1.12	1467 pg/mL	4%	1.7	118 pg/mL
1002-K1: single substituted 1002 peptide (KQRWLIVWRIRK-NH2) [Peptide 1002-K1]	0.05	127 pg/mL	75%	26.4	6146.9 pg/mL
